Reference: patent US20230066011A1, “PYRROLOPYRIMIDINE DERIVATIVE, AND PHARMACEUTICAL COMPOSITION FOR PREVENTING OR TREATING PROTEIN KINASE-RELATED DISEASE COMPRISING SAME AS ACTIVE INGREDIENT” (VORONOI CO., LTD., priority 2019, published 2023)

Assays:
[1] = biological target: T1, human GST-DYRK1A (Homo sapiens, UniProt Q13627); test: GST-DYRK1A enzyme inhibition, ADP-Glo kinase assay; format: biochemical; details: ATP 10 μM, GST-DYRK1A full length, read-out: DYRK1 IC50
T1 construct: purified human GST-DYRK1A (full length, Thermo Scientifics) enzyme; purchased Thermo Scientifics
Outline: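 Full-length human GST-DYRK1A (10 ng) with 10 μM ATP and specific substrate in 40 mM Tris-HCl pH 7.4, 20 mM MgCl2, 0.5 mg/mL BSA, 50 μM DTT, 1 h at 25 °C. ADP formation read by ADP-Glo luminescence relative to solvent control; IC50 from three data sets.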

[2] = biological target: LRRK2 (G2019S) (Homo sapiens, UniProt Q5S007, G2019S); test: LRRK2 G2019S enzyme inhibition, ADP-Glo kinase assay; format: biochemical; design: purchased SignalChem L10-12GG; details: ATP 25 μM
Outline: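 Purified human LRRK2 G2019S (16 ng) with 25 μM ATP and 0.2 μg substrate, 2 h at 25° C. in Tris-HCl pH 7.4, MgCl2, BSA, DTT buffer; compounds at 12 final concentrations, 50 μM down to 0.000001024 μM. ADP-Glo luminescence versus solvent control gave IC50.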

[3] = tested on: MDA-MB-468 cell line; test: Inhibition of proliferation of MDA-MB-468 cancer cells (Cell Titer-Glo); format: cell-based; details: Homo sapiens, MDA-MB-468, 72 hours
Method: (§1) To evaluate an inhibitory effect on the proliferation of cancer cells, each of an MDA-MB-231 cell line (Korean Cell Line Bank #30026) and an MDA-MB-468 cell line as triple-negative breast cancer cell lines, and SHP-77 (ATCC #CRL-2195) as a small-cell lung cancer cell line was cultured in DMEM (HyClone #SH30243) or an RPMI medium (HyClone #SH3027.01) to analyze a cell growth rate. More specifically, a cell line was plated on a 96-well flat bottom plate (Corning #3903) at a density of 2,000 cells/100 μL per well, and then treated with 11 concentrations of the Example compound, a solution of which was diluted 3-fold so that a final concentration of the compound was 10.000000, 3.333333, 1.111111, 0.370370, 0.123457, 0.041152, 0.013717, 0.004572, 0.001524, 0.000508, and 0.000169 μM. After 72 hours, each of the culture media was treated with 100 μL of Cell Titer-Glo (Promega G7573), and then cultured at room temperature for 10 minutes. Then, a degree of luminescence was measured using a microplate reader. A GI50 value was calculated from the measured degree of luminescence using Prism (Version 8.2 GraphPad) software.

[4] = tested on: MDA-MB-231 cell line; test: Inhibition of proliferation of MDA-MB-231 cancer cells (Cell Titer-Glo); format: cell-based; details: Homo sapiens, 72 hours
Method: as §1

[5] = biological target: T2, human GST-CLK1 (Homo sapiens, UniProt P49759); test: GST-CLK1 enzyme inhibition, ADP-Glo kinase assay; format: biochemical; details: ATP 10 μM, GST-CLK1 129-end
T2 construct: purified human GST-CLK1 (129-end, SignalChem) enzyme; purchased SignalChem
Outline: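 Human GST-CLK1 (129-end, 3 ng) reacted with substrate and 10 μM ATP for 1 h at 25° C in 40 mM Tris-HCl pH 7.4, 20 mM MgCl2, 0.5 mg/mL BSA, 50 μM DTT. ADP-Glo luminescence was normalised to solvent control; IC50 (nM) from 3 data sets.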

[6] = biological target: LRRK2 (Homo sapiens, UniProt Q5S007); test: LRRK2 enzyme inhibition, ADP-Glo kinase assay; format: biochemical; design: purchased Invitrogen PR8604B; details: ATP 10 μM
Outline: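 Purified human LRRK2 (25 ng) with 10 μM ATP and 0.2 μg substrate in 40 mM Tris-HCl pH 7.4, 20 mM MgCl2, 0.5 mg/mL BSA, 50 μM DTT, 2 h at 25° C. ADP-Glo luminescence; 12-point compound series from 50 μM final; IC50 relative to solvent control.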

[7] = tested on: human DYRK1A and tau; test: Inhibition of tau phosphorylation, ClariCELL Kinase Cell-Based Assay, HEK 293 cells expressing human DYRK1A and tau; details: for inhibition at 1 µM: HEK293, read-out: % inhibition at 1 uM, tau phosphorylation, compound 1 uM; for inhibition at 0.25 µM / inhibition at 0.5 µM: HEK293, tau phosphorylation; for inhibition at 0.25 µM: compound 0.25 uM; for inhibition at 0.5 µM: compound 0.5 uM
Method: An inhibitory effect on tau phosphorylation was determined using the ClariCELL™ Kinase Cell-Based Assay service (commercially available from CamaBio USA, Inc.). Human embryonic kidney (HEK 293) cells temporarily expressing human DYRK1A and tau were exposed to the compound, and then lysed to release cell proteins. In this case, the released tau was captured on a plate, and a degree of phosphorylation was quantified by ELISA using a tau phosphorylation-specific antibody.

Chain of LRRK2 (Q5S007 970-2527 limits assumed): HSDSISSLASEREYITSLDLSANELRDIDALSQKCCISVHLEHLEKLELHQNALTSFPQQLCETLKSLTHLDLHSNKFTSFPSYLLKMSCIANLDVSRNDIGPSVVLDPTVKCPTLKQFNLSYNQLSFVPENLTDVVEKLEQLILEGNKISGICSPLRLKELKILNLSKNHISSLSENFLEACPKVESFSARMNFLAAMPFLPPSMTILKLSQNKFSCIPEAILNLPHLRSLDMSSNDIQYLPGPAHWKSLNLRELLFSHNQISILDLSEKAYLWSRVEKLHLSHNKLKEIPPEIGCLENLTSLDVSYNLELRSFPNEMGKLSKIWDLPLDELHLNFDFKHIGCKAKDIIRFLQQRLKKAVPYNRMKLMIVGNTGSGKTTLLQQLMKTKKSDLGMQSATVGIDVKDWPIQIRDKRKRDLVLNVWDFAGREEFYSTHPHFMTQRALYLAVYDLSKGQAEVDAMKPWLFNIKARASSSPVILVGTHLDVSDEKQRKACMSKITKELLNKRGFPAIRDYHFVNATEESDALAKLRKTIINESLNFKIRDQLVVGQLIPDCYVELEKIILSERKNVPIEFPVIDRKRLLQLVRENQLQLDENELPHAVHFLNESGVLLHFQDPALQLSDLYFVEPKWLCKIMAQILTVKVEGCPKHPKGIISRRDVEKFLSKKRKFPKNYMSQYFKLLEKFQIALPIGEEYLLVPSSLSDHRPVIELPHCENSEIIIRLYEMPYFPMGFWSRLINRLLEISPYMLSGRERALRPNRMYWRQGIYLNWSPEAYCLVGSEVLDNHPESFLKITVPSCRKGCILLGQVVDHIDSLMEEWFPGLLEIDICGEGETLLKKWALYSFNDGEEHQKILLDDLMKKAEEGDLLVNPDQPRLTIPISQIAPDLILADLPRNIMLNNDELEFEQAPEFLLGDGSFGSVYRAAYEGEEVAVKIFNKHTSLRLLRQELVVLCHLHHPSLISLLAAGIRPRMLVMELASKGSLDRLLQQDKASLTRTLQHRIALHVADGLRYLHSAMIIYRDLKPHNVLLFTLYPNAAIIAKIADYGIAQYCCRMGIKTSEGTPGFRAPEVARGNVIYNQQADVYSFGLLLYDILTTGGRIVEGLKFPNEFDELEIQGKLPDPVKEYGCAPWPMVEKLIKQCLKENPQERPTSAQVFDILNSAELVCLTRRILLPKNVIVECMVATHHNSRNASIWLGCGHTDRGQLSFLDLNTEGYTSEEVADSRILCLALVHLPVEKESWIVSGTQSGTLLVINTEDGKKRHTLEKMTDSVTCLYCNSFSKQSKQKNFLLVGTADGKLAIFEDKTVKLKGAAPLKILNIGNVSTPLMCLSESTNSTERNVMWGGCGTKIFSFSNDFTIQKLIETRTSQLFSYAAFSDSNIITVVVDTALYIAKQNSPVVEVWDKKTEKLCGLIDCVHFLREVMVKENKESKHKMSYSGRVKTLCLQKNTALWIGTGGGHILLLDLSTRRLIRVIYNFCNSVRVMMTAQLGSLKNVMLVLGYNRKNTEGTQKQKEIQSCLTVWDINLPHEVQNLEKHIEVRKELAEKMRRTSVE
Chain of LRRK2 (G2019S) (Q5S007 970-2527 G2019S limits assumed): as the sequence (Q5S007 970-2527 limits assumed) above, with G1050S counted along it
T2 sequence (P49759 129-484 limits assumed): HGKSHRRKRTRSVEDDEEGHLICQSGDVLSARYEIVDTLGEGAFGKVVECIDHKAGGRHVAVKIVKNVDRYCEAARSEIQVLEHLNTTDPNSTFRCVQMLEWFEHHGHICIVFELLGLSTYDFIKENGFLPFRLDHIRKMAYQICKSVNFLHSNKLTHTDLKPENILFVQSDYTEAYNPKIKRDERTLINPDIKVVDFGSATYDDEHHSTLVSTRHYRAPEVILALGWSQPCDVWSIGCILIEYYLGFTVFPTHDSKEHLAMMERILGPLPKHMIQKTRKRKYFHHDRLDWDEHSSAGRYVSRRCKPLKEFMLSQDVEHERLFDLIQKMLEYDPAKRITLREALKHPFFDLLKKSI

Compound | IC50 [1] [nM] | IC50 [2] [nM] | GI50 [3] [nM] | GI50 [4] [nM] | IC50 [5] [nM] | IC50 [6] [nM] | inhibition at 1 µM [7] [%] | inhibition at 0.25 µM [7] [%] | inhibition at 0.5 µM [7] [%]
COCC(C)(C)Nc1nc(Nc2ccc(S(=O)(=O)N3CCC(N4CCOCC4)CC3)cc2OC)nc2[nH]cc(C(F)(F)F)c12 [Example 176, N^4-(1-methoxy-2-methylpropan-2-yl)-N^2-(2-methoxy-4-((4-morpholinopiperidin-1-yl)sulfonyl)phenyl)-5-(trifluoromethyl)-7H-pyrrolo[2,3-d]pyrimidine-2,4-diamine] | 301 to 1000 | 301 to 1000 |  | 101 to 300 | 301 to 1000 | 301 to 1000 |  |  | 
O=C(c1ccc(Nc2nc(NC3CCCC3)c3cc[nH]c3n2)c2c1CCO2)N1CCC(N2CCOCC2)CC1 [Example 241, (7-((4-(cyclopentylamino)-7H-pyrrolo[2,3-d]pyrimidin-2-yl)amino)-2,3-dihydrobenzofuran-4-yl)(4-morpholinopiperidin-1-yl)methanone] | 301 to 1000 |  | 301 to 1000 |  | 301 to 1000 |  |  |  | 
COc1cc(P2(=O)CCN(C3CC3)CC2)ccc1Nc1nc(NC2CCCC2)c2cc[nH]c2n1 [Example 242, 4-(4-((4-(cyclopentylamino)-7H-pyrrolo[2,3-d]pyrimidin-2-yl)amino)-3-methoxyphenyl)-1-cyclopropyl-1,4-azaphosphinane 4-oxide] | 301 to 1000 |  | 301 to 1000 |  | 301 to 1000 |  |  |  | 
COc1cc(P2(=O)CCN(C3CCOCC3)CC2)ccc1Nc1nc(NC2CCCC2)c2cc[nH]c2n1 [Example 243, 4-(4-((4-(cyclopentylamino)-7H-pyrrolo[2,3-d]pyrimidin-2-yl)amino)-3-methoxyphenyl)-1-(tetrahydro-2H-pyran-4-yl)-1,4-azaphosphinane 4-oxide] | 301 to 1000 |  | 301 to 1000 |  | 301 to 1000 |  |  |  | 
O=C(c1ccc(Nc2nc(NC3CCCCC3)c3cc[nH]c3n2)c2c1CCO2)N1CCOCC1 [Example 244, (7-((4-(cyclohexylamino)-7H-pyrrolo[2,3-d]pyrimidin-2-yl)amino)-2,3-dihydrobenzofuran-4-yl)(morpholino)methanone] | 301 to 1000 |  | < 50 |  | 301 to 1000 | < 100 |  |  | 
O=C(c1ccc(Nc2nc(NC3CCCCC3)c3cc[nH]c3n2)c2c1CCO2)N1CCC(N2CCOCC2)CC1 [Example 245, (7-((4-(cyclohexylamino)-7H-pyrrolo[2,3-d]pyrimidin-2-yl)amino)-2,3-dihydrobenzofuran-4-yl)(4-morpholinopiperidin-1-yl)methanone] | 301 to 1000 |  | 51 to 100 |  | 301 to 1000 |  |  |  | 
COc1cc(S(=O)(=O)N2CCOCC2)ccc1Nc1nc(NC(C)C)c2c(C#N)c[nH]c2n1 [Example 250, 4-(isopropylamino)-2-((2-methoxy-4-(morpholinosulfonyl)phenyl)amino)-7H-pyrrolo[2,3-d]pyrimidine-5-carbonitrile] | 301 to 1000 |  | < 50 |  | 301 to 1000 | < 100 |  |  | 
CC[C@H](C)Nc1nc(Nc2ccc(S(=O)(=O)N3CCC(N4CCOCC4)CC3)cc2OC)nc2[nH]cc(C#N)c12 [Example 263, (S)-4-(sec-butylamino)-2-((2-methoxy-4-((4-morpholinopiperidin-1-yl)sulfonyl)phenyl)amino)-7H-pyrrolo[2,3-d]pyrimidine-5-carbonitrile] | 301 to 1000 |  | 51 to 100 | < 50 | 301 to 1000 |  |  |  | 

Further lines, with some results ahead:

IC50 [1] [nM] | IC50 [2] [nM] | GI50 [3] [nM] | GI50 [4] [nM] | IC50 [5] [nM] | IC50 [6] [nM] | Compound | inhibition at 1 µM [7] [%] | inhibition at 0.25 µM [7] [%] | inhibition at 0.5 µM [7] [%]
301 to 1000 | < 100 | < 50 | < 50 | 101 to 300 |  | COc1cc(S(=O)(=O)N2CCC(N3CCOCC3)CC2)ccc1Nc1nc(NC(C)C)c2c(C#N)c[nH]c2n1 [Example 85, 4-(isopropylamino)-2-((2-methoxy-4-((4-morpholinopiperidin-1-yl)sulfonyl)phenyl)amino)-7H-pyrrolo[2,3-d]pyrimidine-5-carbonitrile] |  |  | 
 |  | < 50 | < 50 | 301 to 1000 |  | COc1cc(P(C)(C)=O)ccc1Nc1nc(NC2CCCCC2)c2c(C#N)c[nH]c2n1 [Example 117, 4-(cyclohexylamino)-2-((4-(dimethylphosphoryl)-2-methoxyphenyl)amino)-7H-pyrrolo[2,3-d]pyrimidine-5-carbonitrile] |  |  | 
301 to 1000 |  | < 50 |  | < 100 | < 100 | N#Cc1c[nH]c2nc(Nc3ccc(C(=O)N4CCOCC4)c4c3OCC4)nc(NC3CCCC3)c12 [Example 319, 4-(cyclo-pentylamino)-2-((4-(morpholine-4-carbonyl)-2,3-dihydrobenzo-furan-7-yl)amino)-7H-pyrrolo[2,3-d]pyrimidine-5-carbonitrile] |  |  | 
< 100 |  | 301 to 1000 |  | < 100 |  | N#Cc1c[nH]c2nc(Nc3ccc(C(=O)N4CCC(N5CCOCC5)CC4)c4c3OCC4)nc(NC3CCCC3)c12 [Example 320, 4-(cyclo-pentylamino)-2-((4-(4-morpholino-piperidine-1-carbonyl)-2,3-dihydro-benzofuran-7-yl)amino)-7H-pyrrolo[2,3-d]pyrimidine-5-carbonitrile] |  |  | 
301 to 1000 |  | < 50 |  | 101 to 300 | 101 to 300 | N#Cc1c[nH]c2nc(Nc3ccc(C(=O)N4CCOCC4)c4c3OCC4)nc(NC3CCCCC3)c12 [Example 321, 4-(cyclo-hexylamino)-2-((4-(morpholine-4-carbonyl)-2,3-dihydrobenzo-furan-7-yl)amino)-7H-pyrrolo[2,3-d]pyrimidine-5-carbonitrile] |  |  | 
< 100 | < 100 |  |  | < 100 | < 100 | N#Cc1c[nH]c2nc(Nc3ccc(C(=O)N4CCC(N5CCOCC5)CC4)c4c3OCC4)nc(NC3CCCCC3)c12 [Example 322, 4-(cyclo-hexylamino)-2-((4-(4-morpholino-piperidine-1-carbonyl)-2,3-dihydro-benzofuran-7-yl)amino)-7H-pyrrolo[2,3-d]pyrimidine-5-carbonitirle] | 64.3 | -10.5 | 34.2
< 100 |  | 301 to 1000 |  | < 100 | < 100 | COCCNc1nc(Nc2ccc(P3(=O)CCN(C4CC4)CC3)cc2OC)nc2[nH]cc(C(F)(F)F)c12 [Example 412, 1-cyclopropyl-4-(3-methoxy-4-((4-((2-methoxyethyl)amino)-5-(trifluoromethyl)-7H-pyrrolo[2,3-d]pyrimidin-2-yl)amino)phenyl)-1,4-azaphosphinane 4-oxide] |  |  | 
< 100 |  |  |  | < 100 | < 100 | CCNc1nc(Nc2ccc(P3(=O)CCN(C4CCOCC4)CC3)cc2OC)nc2[nH]cc(C(F)(F)F)c12 [Example 439, 4-(4-((4-(ethylamino)-5-(trifluoromethyl)-7H-pyrrolo[2,3-d]pyrimidin-2-yl)amino)-3-methoxyphenyl)-1-(tetrahydro-2H-pyran-4-yl)-1,4-azaphosphinane 4-oxide] | 55.7 | 18.8 | 43.6
